Experimental data taken from patent US6355799B1, “Substituted benzene compounds, process for their preparation, and herbicidal and defoliant compositions containing them” (ISK Americas Incorporated, priority 1997, dated 2002).

Experiments:
Assay type in all cases: in vivo
[1] = test system: ivyleaf morningglory (Ipomoea hederacea, IPOHE); experiment: Pre-emerge test, greenhouse herbicide activity screening; settings: phytotoxicity rating 0-100, 14 days after application
In short: (§1)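 Rating: 0–100 visual injury, 14 DAA. Application: acetone, 187 l/ha, 15–1000 g ai/ha, flat-fan track sprayer with nozzle 40–45 cm above soil or canopy. Post-emerge runs used 0.25% v/v surfactant on 2–3 leaf plants.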

[2] = test system: large crabgrass (Digitaria sanguinalis, DIGSA); experiment: as above; settings: phytotoxicity rating 0-100, 14 days after application
In short: as §1

[3] = test system: lambsquarters (Chenopodium album, CHEAL); experiment: as above; settings: phytotoxicity rating 0-100, 14 days after application
In short: as §1

[4] = test system: sicklepod (Cassia obtusifolia, CASOB); experiment: as above; settings: phytotoxicity rating 0-100, 14 days after application
In short: as §1

[5] = test system: velvetleaf (Abutilon theophrasti, ABUTH); experiment: as above; settings: phytotoxicity rating 0-100, 14 days after application
In short: as §1

[6] = test system: barnyardgrass (Echinochloa crus-galli, ECHCG); experiment: as above; settings: phytotoxicity rating 0-100, 14 days after application
In short: as §1

[7] = test system: johnsongrass (Sorghum halepense, SORHA); experiment: as above; settings: phytotoxicity rating 0-100, 14 days after application
In short: as §1

[8] = test system: green foxtail (Setaria viridis, SETVI); experiment: as above; settings: phytotoxicity rating 0-100, 14 days after application
In short: as §1

[9] = test system: redroot pigweed (Amaranthus retroflexus, AMARE); experiment: Post-emerge test, greenhouse herbicide activity screening; settings: post-emerge, 14 days after application
In short: as §1

[10] = test system: ivyleaf morningglory (Ipomoea hederacea, IPOHE); experiment: as above; settings: post-emerge, 14 days after application, rating scale 0-100
In short: as §1

[11] = test system: large crabgrass (Digitaria sanguinalis, DIGSA); experiment: as above; settings: post-emerge, 14 days after application, rating scale 0-100
In short: as §1

[12] = test system: lambsquarters (Chenopodium album, CHEAL); experiment: as above; settings: post-emerge, 14 days after application, rating scale 0-100
In short: as §1

[13] = test system: sicklepod (Cassia obtusifolia, CASOB); experiment: as above; settings: post-emerge, 14 days after application, rating scale 0-100
In short: as §1

[14] = test system: velvetleaf (Abutilon theophrasti, ABUTH); experiment: as above; settings: post-emerge, 14 days after application, rating scale 0-100
In short: as §1

[15] = test system: barnyardgrass (Echinochloa crus-galli, ECHCG); experiment: as above; settings: post-emerge, 14 days after application, rating scale 0-100
In short: as §1

[16] = test system: johnsongrass (Sorghum halepense, SORHA); experiment: as above; settings: post-emerge, 14 days after application, rating scale 0-100
In short: as §1

[17] = test system: green foxtail (Setaria viridis, SETVI); experiment: as above; settings: post-emerge, 14 days after application, rating scale 0-100
In short: as §1

[18] = test system: redroot pigweed (Amaranthus retroflexus, AMARE); experiment: Pre-emerge test, greenhouse herbicide activity screening; settings: phytotoxicity rating 0-100, 14 days after application
In short: as §1

[19] = test system: field corn (Zea mays L., var. Dekalb 535, CORN); experiment: Pre-emerge test, crop safety; settings: crop damage rating 0-100, 14 days after application
In short: (§2)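 Fourteen days after spraying, crop and weed injury was graded visually from 0, no effect, to 100, every plant dead. Test substances were dissolved in acetone and applied at 15–1000 g ai/ha with a flat-fan nozzle. Application was either pre-emergence, one day after sowing, or post-emergence at the 2–3 leaf stage.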

[20] = test system: upland rice (Oryza sp., var. Tebonnet, RICE); experiment: Pre-emerge test, crop safety; settings: crop damage rating 0-100, 14 days after application
In short: as §2

[21] = test system: field corn (Zea mays L., var. Dekalb 535, CORN); experiment: Post-emerge test, crop safety; settings: post-emerge, 14 days after application, rating scale 0-100
In short: (§3)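 Plants grown in 10 cm pots of sandy loam mix received acetone-dissolved compounds through a moving flat-fan nozzle. Doses ranged from 15 to 1000 g ai/ha. Pre-emerge pots were seeded one day earlier, post-emerge pots 8–21 days earlier. Fourteen days on, each pot was graded 0–100 for damage.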

[22] = test system: upland rice (Oryza sp., var. Tebonnet, RICE); experiment: Post-emerge test, crop safety; settings: post-emerge, 14 days after application, rating scale 0-100
In short: as §3

[23] = 63 g ai/ha, rating scale 0-100 (0 no damage, 100 complete death)
[24] = 250 g ai/ha, rating scale 0-100

COc1c(Cl)cc(F)c(-n2c(=O)cc(C(F)(F)F)n(C)c2=O)c1NC(=O)Oc1ccccc1C(C)(C)C [4-27]
20: Pre-emerge Herbicidal Activity IPOHE ([1]; 63 g ai/ha) | phytotoxicity rating CASOB ([13]; 63 g ai/ha)
0: Pre-emerge Herbicidal Activity DIGSA ([2]; 63 g ai/ha) | Pre-emerge Herbicidal Activity DIGSA ([2]; 250 g ai/ha) | Pre-emerge Herbicidal Activity CASOB ([4]; 63 g ai/ha) | Pre-emerge Herbicidal Activity ECHCG ([6]; 63 g ai/ha) | Pre-emerge Herbicidal Activity ECHCG ([6]; 250 g ai/ha) | Pre-emerge Herbicidal Activity SORHA ([7]; 63 g ai/ha) | Pre-emerge Herbicidal Activity SORHA ([7]; 250 g ai/ha) | phytotoxicity rating DIGSA ([11]; 63 g ai/ha) | phytotoxicity rating DIGSA ([11]; 250 g ai/ha) | phytotoxicity rating ECHCG ([15]; 63 g ai/ha) | phytotoxicity rating ECHCG ([15]; 250 g ai/ha) | phytotoxicity rating SORHA ([16]; 63 g ai/ha) | phytotoxicity rating SORHA ([16]; 250 g ai/ha) | phytotoxicity rating SETVI ([17]; 63 g ai/ha) | Pre-emerge Herbicidal Activity CORN ([19]; 63 g ai/ha) | Pre-emerge Herbicidal Activity CORN ([19]; 250 g ai/ha) | phytotoxicity rating RICE (crop damage) ([22]; 63 g ai/ha)
10: phytotoxicity rating SETVI ([17]; 250 g ai/ha) | Pre-emerge Herbicidal Activity RICE ([20]; 63 g ai/ha) | phytotoxicity rating CORN (crop damage) ([21]; 250 g ai/ha) | phytotoxicity rating RICE (crop damage) ([22]; 250 g ai/ha)
80: Pre-emerge Herbicidal Activity CHEAL ([3]; 63 g ai/ha) | Pre-emerge Herbicidal Activity ABUTH ([5]; 63 g ai/ha) | phytotoxicity rating AMARE [9, 24] | phytotoxicity rating IPOHE ([10]; 250 g ai/ha)
40: phytotoxicity rating CASOB ([13]; 250 g ai/ha)
30: Pre-emerge Herbicidal Activity CASOB ([4]; 250 g ai/ha) | Pre-emerge Herbicidal Activity SETVI ([8]; 63 g ai/ha)
50: Pre-emerge Herbicidal Activity IPOHE ([1]; 250 g ai/ha) | Pre-emerge Herbicidal Activity SETVI ([8]; 250 g ai/ha) | Pre-emerge Herbicidal Activity RICE ([20]; 250 g ai/ha)
70: phytotoxicity rating IPOHE ([10]; 63 g ai/ha) | phytotoxicity rating ABUTH ([14]; 63 g ai/ha) | Pre-emerge Herbicidal Activity AMARE ([18]; 63 g ai/ha)
5: phytotoxicity rating CORN (crop damage) ([21]; 63 g ai/ha)
100: Pre-emerge Herbicidal Activity CHEAL ([3]; 250 g ai/ha) | Pre-emerge Herbicidal Activity ABUTH ([5]; 250 g ai/ha) | phytotoxicity rating CHEAL ([12]; 250 g ai/ha) | phytotoxicity rating ABUTH ([14]; 250 g ai/ha) | Pre-emerge Herbicidal Activity AMARE ([18]; 250 g ai/ha)
60: phytotoxicity rating AMARE [9, 23] | phytotoxicity rating CHEAL ([12]; 63 g ai/ha)

COc1c(Cl)cc(F)c(-n2c(=O)cc(C(F)(F)F)n(C)c2=O)c1NC(=O)OCc1ccc2ccccc2c1 [4-28]
30: phytotoxicity rating SETVI ([17]; 250 g ai/ha)
20: Pre-emerge Herbicidal Activity ABUTH ([5]; 63 g ai/ha) | Pre-emerge Herbicidal Activity SETVI ([8]; 63 g ai/ha) | phytotoxicity rating DIGSA ([11]; 250 g ai/ha) | phytotoxicity rating ECHCG ([15]; 250 g ai/ha)
100: Pre-emerge Herbicidal Activity CHEAL ([3]; 250 g ai/ha) | phytotoxicity rating AMARE [9, 24] | phytotoxicity rating ABUTH ([14]; 63 g ai/ha) | phytotoxicity rating ABUTH ([14]; 250 g ai/ha)
50: phytotoxicity rating CASOB ([13]; 63 g ai/ha) | phytotoxicity rating CASOB ([13]; 250 g ai/ha)
40: Pre-emerge Herbicidal Activity AMARE ([18]; 63 g ai/ha)
5: phytotoxicity rating CORN (crop damage) ([21]; 250 g ai/ha)
10: phytotoxicity rating SORHA ([16]; 250 g ai/ha) | phytotoxicity rating SETVI ([17]; 63 g ai/ha) | phytotoxicity rating RICE (crop damage) ([22]; 63 g ai/ha)
15: Pre-emerge Herbicidal Activity RICE ([20]; 250 g ai/ha) | phytotoxicity rating RICE (crop damage) ([22]; 250 g ai/ha)
90: phytotoxicity rating CHEAL ([12]; 250 g ai/ha)
60: Pre-emerge Herbicidal Activity ABUTH ([5]; 250 g ai/ha) | Pre-emerge Herbicidal Activity SETVI ([8]; 250 g ai/ha) | phytotoxicity rating IPOHE ([10]; 63 g ai/ha)
80: phytotoxicity rating AMARE [9, 23] | phytotoxicity rating IPOHE ([10]; 250 g ai/ha)
70: Pre-emerge Herbicidal Activity CHEAL ([3]; 63 g ai/ha) | phytotoxicity rating CHEAL ([12]; 63 g ai/ha) | Pre-emerge Herbicidal Activity AMARE ([18]; 250 g ai/ha)
0: Pre-emerge Herbicidal Activity IPOHE ([1]; 63 g ai/ha) | Pre-emerge Herbicidal Activity IPOHE ([1]; 250 g ai/ha) | Pre-emerge Herbicidal Activity DIGSA ([2]; 63 g ai/ha) | Pre-emerge Herbicidal Activity DIGSA ([2]; 250 g ai/ha) | Pre-emerge Herbicidal Activity CASOB ([4]; 63 g ai/ha) | Pre-emerge Herbicidal Activity CASOB ([4]; 250 g ai/ha) | Pre-emerge Herbicidal Activity ECHCG ([6]; 63 g ai/ha) | Pre-emerge Herbicidal Activity ECHCG ([6]; 250 g ai/ha) | Pre-emerge Herbicidal Activity SORHA ([7]; 63 g ai/ha) | Pre-emerge Herbicidal Activity SORHA ([7]; 250 g ai/ha) | phytotoxicity rating DIGSA ([11]; 63 g ai/ha) | phytotoxicity rating ECHCG ([15]; 63 g ai/ha) | phytotoxicity rating SORHA ([16]; 63 g ai/ha) | Pre-emerge Herbicidal Activity CORN ([19]; 63 g ai/ha) | Pre-emerge Herbicidal Activity CORN ([19]; 250 g ai/ha) | Pre-emerge Herbicidal Activity RICE ([20]; 63 g ai/ha) | phytotoxicity rating CORN (crop damage) ([21]; 63 g ai/ha)
